How the values were obtained:
[1] = molecular target: Replicase polyprotein 1a (Severe acute respiratory syndrome-related coronavirus) (UniProt P0C6U8); assay: Half life period against SARS-CoV 3CLpro protease
[2] = molecular target: Replicase polyprotein 1a (Severe acute respiratory syndrome-related coronavirus) (UniProt P0C6U8); assay: Inactivation rate constant against SARS-CoV 3CLpro protease
Replicase polyprotein 1a = Replicase polyprotein 1a (Severe acute respiratory syndrome-related coronavirus, UniProt P0C6U8); assay: Inhibitory concentration required for antiviral activity against SARS-CoV 3CLpro protease
[3] = molecular target: Replicase polyprotein 1a (Severe acute respiratory syndrome-related coronavirus) (UniProt P0C6U8)

Compound | T1/2 [1] | kinact [2] | IC50 (Replicase polyprotein 1a) | kinact [3]
CC(C)C[C@H](NC(=O)[C@@H](O)C(S)C(=O)O)C(=O)NCCCCN=C(N)N (some centres undefined) | 5.25 h | 0.0022 min⁻¹ | – | –
CCOC(=O)/C=C/[C@H](C[C@@H]1CCNC1=O)NC(=O)[C@H](Cc1ccccc1)CC(O)[C@@H](NC(=O)c1cc(C)on1)C(C)C (some centres undefined) | 4.62 h | 0.0025 min⁻¹ | – | –
CCOC(=O)/C=C/[C@H](C[C@@H]1CCNC1=O)NC(=O)[C@@H](CC(=O)[C@@H](NC(=O)c1cc(C)on1)C(C)C)Cc1ccccc1 | 0.817 h | 0.014 min⁻¹ | 45 µM | –
CCOC(=O)/C=C/[C@H](C[C@@H]1CCNC1=O)NC(=O)[C@H](CC=C(C)C)CC(=O)[C@@H](NC(=O)c1cc(C)on1)C(C)C | 0.25 h | – | – | 0.045 min⁻¹

— ChEMBL document CHEMBL1141032, “Design and synthesis of peptidomimetic severe acute respiratory syndrome chymotrypsin-like protease inhibitors” (J Med Chem, 2005)
